Reference: patent US8673913B2, “SHP-2 phosphatase inhibitor” (Case Western Reserve University, priority 2009, dated 2014)

Legend:
[1] = target: T1, GST-CD45 cytoplasmic domain (Homo sapiens, UniProt P08575); test: in vitro phosphatase assay, CD45; format: biochemical; conditions: read-out: IC50 PTPRC (CD45)
T1 construct: GST-CD45 cytoplasmic domain; purchased Biomol International, L.P. (Plymouth Meeting, Pa.)
T1 sequence (P08575 599-1306 limits assumed): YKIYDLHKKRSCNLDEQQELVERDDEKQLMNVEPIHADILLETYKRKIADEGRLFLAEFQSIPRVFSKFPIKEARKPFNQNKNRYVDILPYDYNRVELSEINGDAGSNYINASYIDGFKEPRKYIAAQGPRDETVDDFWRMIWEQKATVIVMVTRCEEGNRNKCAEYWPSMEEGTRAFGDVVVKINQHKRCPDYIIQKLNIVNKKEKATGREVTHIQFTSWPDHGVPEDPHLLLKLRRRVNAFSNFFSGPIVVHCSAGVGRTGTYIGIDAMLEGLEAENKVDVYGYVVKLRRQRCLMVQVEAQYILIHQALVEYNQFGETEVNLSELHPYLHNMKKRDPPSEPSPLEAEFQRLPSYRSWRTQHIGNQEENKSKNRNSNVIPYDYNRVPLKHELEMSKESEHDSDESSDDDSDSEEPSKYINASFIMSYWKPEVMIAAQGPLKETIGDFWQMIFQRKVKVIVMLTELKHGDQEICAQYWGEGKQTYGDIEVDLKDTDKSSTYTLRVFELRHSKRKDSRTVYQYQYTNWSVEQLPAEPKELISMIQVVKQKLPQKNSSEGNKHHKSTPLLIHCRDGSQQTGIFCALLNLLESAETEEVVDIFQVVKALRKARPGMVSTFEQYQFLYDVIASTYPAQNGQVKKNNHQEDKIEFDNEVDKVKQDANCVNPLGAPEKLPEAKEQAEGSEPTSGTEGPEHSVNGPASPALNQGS
Experimental: (§1) Candidate compounds were screened using the in vitro protein tyrosine phosphatase (PTP) assay kit (Sigma, St. Lois, Mo.). […] The assay determines free phosphate generated by dephosphorylation of the PTP substrate using the Malachite Green reagent. Briefly, 0.5 μg of GST-SHP-2 PTP was incubated in 40 μL assay buffer (25 mM Tris-HCl, PH7.4, 50 mM NaCl, 5 mM DTT, and 2.5 mM EDTA) with test compounds at various concentrations or DMSO at room temperature for 30 min. The PTP substrate was then added to a final concentration of 0.2 mM. The system was incubated at 30° C. for 30 min. Finally, 50 μl of Malachite Green solution was added and OD620 was measured after 5 min. In the phosphatase assays for SHP-1, CD45, TC-PTP, PTP-MEG2 (PTPN9), and LAR (PTPRF), procedures were similar, with the exception that GST-SHP-1, GST-CD45 cytoplasmic domain, GST-TC-PTP, GST-PTP-MEG2 PTP domain, and GST-LAR PTP domain purchased from Biomol International, L.P. (Plymouth Meeting, Pa.) were used instead as the enzymes.

[2] = target: T2, GST-LAR PTP domain (PTPRF) (Homo sapiens, UniProt P10586); test: in vitro phosphatase assay, LAR; format: biochemical
T2 construct: GST-LAR PTP domain purchased from Biomol International; purchased Biomol International, L.P. (Plymouth Meeting, Pa.)
T2 sequence (P10586 1352-1607 limits assumed): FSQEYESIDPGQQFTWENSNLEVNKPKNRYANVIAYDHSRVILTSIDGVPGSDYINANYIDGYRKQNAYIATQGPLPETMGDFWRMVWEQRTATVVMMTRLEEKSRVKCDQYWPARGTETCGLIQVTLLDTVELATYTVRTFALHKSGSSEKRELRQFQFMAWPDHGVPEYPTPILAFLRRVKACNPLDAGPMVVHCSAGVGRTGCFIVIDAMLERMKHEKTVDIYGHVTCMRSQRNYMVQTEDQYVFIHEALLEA
Experimental: as §1

[3] = target: T3, GST-PTP-MEG2 PTP domain (PTPN9) (Homo sapiens, UniProt P43378); test: in vitro phosphatase assay, PTP-MEG2; format: biochemical
T3 construct: GST-PTP-MEG2 PTP domain; purchased Biomol International, L.P. (Plymouth Meeting, Pa.)
T3 sequence (P43378 303-574 limits assumed): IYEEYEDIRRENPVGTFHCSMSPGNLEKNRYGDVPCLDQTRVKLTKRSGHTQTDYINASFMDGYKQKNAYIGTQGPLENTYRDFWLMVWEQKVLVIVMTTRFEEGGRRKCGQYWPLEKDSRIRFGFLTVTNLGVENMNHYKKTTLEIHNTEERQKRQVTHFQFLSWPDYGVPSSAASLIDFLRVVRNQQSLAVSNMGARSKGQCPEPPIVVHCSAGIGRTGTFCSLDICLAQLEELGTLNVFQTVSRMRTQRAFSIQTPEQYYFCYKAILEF
Experimental: as §1

[4] = test system: mouse embryonic fibroblasts, wildtype and SHP-2 E76K mutant; test: cell proliferation assay, embryonic fibroblasts wildtype and SHP-2 E76K (MTS); format: cell-based; conditions: 48 hours
Experimental: To test the effects of the active compounds on SHP-2-mediated cellular proliferation, Ba/F3, an IL-3 dependent hematopoietic cell line, mouse embryonic fibroblasts (MEFs), and H661 lung cancer cell line with SHP-2 activating mutation N58S were used for the assays. Cells were seeded into 96-well plates (2×10^4 cells/well) in the RPMI-1640 (for Ba/F3 cells) or DMEM (for MEFs and H661 cells) medium supplemented with 10% fetal bovine serum (FBS) and test compounds at various concentrations. For the Ba/F3 cell assay, recombinant mouse IL-3 (1 ng/mL) was included in the culture medium. Two days later, cell number was determined using the MTS cell proliferation kit (Promega Life Science, Madison, Wis.).
Mouse embryonic fibroblasts, wildtype and SHP-2 E76K mutant, were cultured in DMEM medium supplemented with active compounds at the indicated concentrations. DMSO was included at negative controls. Cell numbers were determined 48 hours later using the MTS assay. Shown are the results of a representative compound #324.

[5] = test system: myeloid progenitors, wildtype and SHP-2 E76K; test: hematopoietic progenitor cell colony formation assay (CFU-GM); format: cell-based, mouse
Experimental: To determine cellular response of myeloid progenitors to IL-3, bone marrow cells (5×10^4 cells/ml) freshly harvested from C57BL6 mice were assayed for colony forming units (CFUs) in 0.9% methylcellulose IMDM medium containing 30% FBS, glutamine (10^−4 M), β-mercaptoethanol (3.3×10^−5 M), and IL-3 (10 ng/ml). After 7 days of culture at 37° C. in a humidified 5% CO2 incubator, hematopoietic cell colonies (primarily CFU-GM) were counted under an inverted microscope.
FIG. 13 illustrates A). […] Bone marrow cells were harvested from wildtype and mutant mice with SHP-2 E76K mutation. IL-3 induced myeloid progenitor cell colony (CFU-GM) formation assays were performed as described in the Examples in the presence of various concentrations of active compounds. Shown are the results of a representative compound #324. B). Inhibition of growth factor-independent colony formation of myeloid progenitors with SHP-2 activating mutation E76K by active compounds. Bone marrow cells were harvested from wildtype and mutant mice with SHP-2 E76K mutation. The cells were assayed for CFU-GM without cytokines in the presence of various concentrations of active compounds. Shown are the results of a representative compound #324.

Cc1cc(C)c2[nH]c3nc(SCC(=O)Nc4cccc5ccccc45)nnc3c2c1 [#324]
IC50 [1]: 182 µM
IC50 [2]: 144 µM
IC50 [3]: 177 µM
sensitivity of E76K fibroblasts versus wild type fibroblasts [4]: more sensitive
growth factor-independent colony formation of E76K myeloid progenitors ([5]; CFU-GM without cytokines): Inhibition
sensitivity of E76K myeloid progenitors versus wild type (IL-3 induced CFU-GM) ([5]; IL-3 induced colony formation): more sensitive
